This passage reports inhibition, GI50 and Activity results from ChEMBL document CHEMBL3882242, “Synthesis and biological evaluation of analogs of the antimitotic marine natural product curacin A” (2002).

Molecules are shown by their SMILES. Active and inactive are the calls of the source. The rule behind the calls is not given here.

Assay [1] concerns the target T1, Tubulin (Bos taurus) (UniProt Q6B856+Q862L2+Q862F3). The assay is described as follows: Inhibition of GTP/glutamate-induced bovine brain tubulin polymerization at 5 uM by […].
In assay [2] the target is T1, Tubulin (Bos taurus). Description: Inhibition of [3H]colchicin binding to bovine brain tubulin incubated at 5 uM and 30 degreeC for 10 mins in presence of GTP by scintillation spectroscopic method.
In assay [3] the target is T1, Tubulin (Bos taurus). The assay is described as follows: Inhibition of [3H]colchicin binding to bovine brain tubulin incubated at 50 uM and 30 degreeC for 10 mins in presence of GTP by scintillation spectroscopic method.
The target in assay [4] is T1, Tubulin (Bos taurus). Description: Inhibition of [3H]colchicine binding to bovine brain tubulin at 50 uM relative to control.
Assay [5] is described as follows: Growth inhibition of human PC3 cells incubated for 48 hrs by MTS assay. In kind it is functional. The following applies: PC-3, 48 h.
A short description of assay [6]: Growth inhibition of human PC3 cells incubated for 96 hrs by MTS assay. In kind it is functional. The following applies: PC-3, 96 h.
Assay [7] is described as follows: Growth inhibition of human MDA-MB-231 cells incubated for 48 hrs by MTS assay. The following applies: MDA-MB-231, 48 h. Format: functional.
The test system of assay [8] is MCF7. The assay is described as follows: Antimitotic activity in human MCF7 cells assessed as increase in mitotic index at 7.8 to 1000 nM measured after 14 to 16 hrs by immunohistochemical analysis. Format: functional, cell-based.
The nature of assay [9]: Growth inhibition of human 2008 cells incubated for 48 hrs by MTS assay. The note with it: Homo sapiens, 2008, 48 h. Format: functional.
The nature of assay [10]: Growth inhibition of human 2008 cells incubated for 96 hrs by MTS assay. Format: functional. The following applies: Homo sapiens, 2008, 96 h.
Assay [11] in a line: Growth inhibition of human MDA-MB-231 cells incubated for 96 hrs by MTS assay. Format: functional. The note with it: MDA-MB-231, 96 h.
In assay [12] the target is T1, Tubulin (Bos taurus). Description: Inhibition of [3H]colchicine binding to bovine brain tubulin at 5 uM relative to control.
The test system of assay [13] is MCF7. The assay is described as follows: Antimitotic activity in human MCF7 cells assessed as induction of cell rounding at 7.8 to 1000 nM measured after 14 to 16 hrs by immunohistochemical analysis. Format: functional, cell-based.
For assay [14], the system named is MCF7. The assay is described as follows: Antimitotic activity in human MCF7 cells assessed as increase in core histone phosphorylation at 7.8 to 1000 nM measured after 14 to 16 hrs by immunohistochemical analysis. In kind it is functional, cell-based.
Assay [15] relates to MCF7. The assay is described as follows: Antimitotic activity in human MCF7 cells assessed as chromatin condensation at 7.8 to 1000 nM measured after 14 to 16 hrs by immunohistochemical analysis. In kind it is functional, cell-based.
Assay [16] deals with MCF7. The assay is described as follows: Antimitotic activity in human MCF7 cells assessed as disruption of microtubules at 7.8 to 1000 nM measured after 14 to 16 hrs by immunohistochemical analysis. In kind it is functional, cell-based.

As to `C=CC[C@@H](CC/C(C)=C/C=C/CC/C=C\[C@@H]1CSC(C(C)(C)C)=N1)OC`, the inhibition against Tubulin (Bos taurus) [1] was 100%; at Tubulin (Bos taurus) [2], 35%; at Tubulin (Bos taurus) [3] it was 63%.

As for `COc1ccc(/C=C\CC/C=C/C=C(\C)CCC(O)c2cc3ccccc3s2)c(OC)c1` (stereo not given), the inhibition on Tubulin (Bos taurus) [4] is < 26.4%. The concentration for 50% growth inhibition (GI50) in assay [5], in assay [6] and in assay [7] was > 50000 nM each time.

For `COc1cc(/C=C\CC/C=C/C=C(\C)CCC(O)c2ccco2)cc(OC)c1OC` (stereo not given), in the assay on MCF7 [8], the outcome was Active.

As for `C=CC[C@@H](CC[C@@]1(C)C[C@H]1[C@H]1C[C@@H]1CC/C=C\[C@@H]1CSC([C@@H]2C[C@@H]2C)=N1)OC`, the inhibition against Tubulin (Bos taurus) [1] was 0%; at Tubulin (Bos taurus) [2], 9%. Moreover, the 50% growth inhibitory concentration (GI50) in assay [5], in [9], in assay [6], in assay [10], in assay [11] and in assay [7] was > 50000 nM in each case.

With `COc1cc(/C=N\OC[C@H]2C[C@@H]2[C@@H]2C[C@]2(C)CCC(O)c2cccs2)cc(OC)c1OC` (stereo not given in full), the inhibition against Tubulin (Bos taurus) [1] was 26%; at Tubulin (Bos taurus) [2], -9%; on Tubulin (Bos taurus) [3], -1%. The 50% growth inhibitory concentration (GI50) in assay [5] turned out to be 1200 nM; in [9], 9900 nM; in [6], 8800 nM; in [10] it was 39000 nM; in assay [11], 15000 nM; in [7] it was 980 nM.

In the case of `COc1cc(/C=N\OC/C=C/C=C(\C)CCC(O)c2cccs2)cc(OC)c1OC` (stereo not given), the inhibition at Tubulin (Bos taurus) [1] worked out at 100%; at Tubulin (Bos taurus) [3], 57%.

As to `C=CC[C@@H](CC/C(C)=C/C=C/CC/C=C\c1coc(C(C)(C)C)n1)OC`, the inhibition at Tubulin (Bos taurus) [2] and on Tubulin (Bos taurus) [3] was 7% in each case. Also, the 50% growth inhibitory concentration (GI50) in assay [6] and in assay [10] was > 50000 nM each time.

Consider `COc1ccc(/C=C\CC/C=C/C=C(\C)CCC(O)c2ccco2)c(OC)c1` (stereo not given), for which the 50% growth inhibitory concentration (GI50) in assay [5] and in assay [6] was > 50000 nM throughout.

As to `COc1ccc(/C=C\CC/C=C/C=C(\C)CCC(O)c2cc(OC)ccc2OC)c(OC)c1` (stereo not given), the GI50 in assay [5] and in [6] was > 50000 nM each time.

As to `COc1cc(/C=C\CC/C=C/C=C(\C)CCC(O)c2cccs2)cc(OC)c1OC` (stereo not given), the inhibition on Tubulin (Bos taurus) [4] was 59%; at Tubulin (Bos taurus) [12] it was 9.9%; on Tubulin (Bos taurus) [1], > 100%. For the same compound, the 50% growth inhibitory concentration (GI50) is 366 to 380 nM in [5]; 280 to 311 nM in [9]; 1020 nM in assay [6]; 214 nM in assay [11]; 151 to 280 nM in [7]. For the same compound, the result with MCF7 [8] was Active.

With `COc1cc(/C=N\OC[C@@H]2C[C@H]2CCC(C)c2cccs2)cc(OC)c1OC` (stereo not given in full), the GI50 in assay [5], in assay [9], in assay [6], in [10], in assay [11] and in [7] was > 50000 nM in each case. In addition, the results for the inhibition on Tubulin (Bos taurus) [2] and at Tubulin (Bos taurus) [3] were -10% and 18%, respectively.

As to `COc1cc(/C=C\CC/C=C/C=C(\C)CCC(O)c2cc3ccccc3o2)cc(OC)c1OC` (stereo not given), the inhibition at Tubulin (Bos taurus) [4] is 68.7%; on Tubulin (Bos taurus) [12], 12.5%; against Tubulin (Bos taurus) [1], 74.6%. In addition, the GI50 in assay [5] is 310 to 596 nM; in assay [6], 1120 nM; in assay [10], 199 nM; in [11] it was 204 nM; in assay [7] it was 86 to 120 nM.

In the case of `COc1cc(/C=C\CC/C=C/C=C(\C)CCC(O)c2cc3ccccc3s2)cc(OC)c1OC` (stereo not given), the inhibition on Tubulin (Bos taurus) [12] was 30.2%; against Tubulin (Bos taurus) [1], > 100%. Besides, the outcome with MCF7 [13], in the assay with MCF7 [8], in the assay with MCF7 [14], in the assay with MCF7 [15] and with MCF7 [16] was Active. For the same compound, the concentration for 50% growth inhibition (GI50) in assay [5] is 620 to 875 nM; in assay [9], 360 to 380 nM; in assay [6] it was 1220 nM; in [10] it was 235 nM; in assay [11] it was 1280 nM; in [7], 83 to 230 nM.

Regarding `COc1ccccc1C(O)CC/C(C)=C/C=C/CC/C=C\c1cc(OC)c(OC)c(OC)c1` (stereo not given), the results for the inhibition at Tubulin (Bos taurus) [4], at Tubulin (Bos taurus) [12] and against Tubulin (Bos taurus) [1] were 73%, 5% and > 100%, respectively. In addition, the 50% growth inhibitory concentration (GI50) is 620 to 933 nM in assay [5]; 314 to 330 nM in assay [9]; 268 nM in assay [10]; 221 nM in assay [11]; 243 to 340 nM in assay [7]. Also, the outcome with MCF7 [8] was Active.

Consider `C=CC[C@@H](CC/C(C)=C/C=C/CC/C=C\c1csc(C(C)(C)C)n1)OC`, for which the inhibition came out at 100% against Tubulin (Bos taurus) [1], 38% at Tubulin (Bos taurus) [2] and 43% on Tubulin (Bos taurus) [3].

With `COc1ccc(OC)c(C(O)CC/C(C)=C/C=C/CC/C=C\c2cc(OC)c(OC)c(OC)c2)c1` (stereo not given), the inhibition at Tubulin (Bos taurus) [4] came to 20.3%; at Tubulin (Bos taurus) [12] it was 0.7%; against Tubulin (Bos taurus) [1], 3.5%. In assay [11], this compound came in with a concentration for 50% growth inhibition (GI50) of 8730 nM.

For `C=CC[C@@H](CC/C(C)=C/C=C/CC/C=C\[C@@H]1CSC([C@@H]2C[C@@H]2C)=N1)OC` [CURACIN A], the values for the inhibition on Tubulin (Bos taurus) [4], on Tubulin (Bos taurus) [12] and against Tubulin (Bos taurus) [1] were 96.2 to 97.7%, 84.9 to 95% and 97.9 to 98%, respectively. In assay [7], this compound came in with a GI50 of 96 to 186 nM.

`C=CC[C@@H](CC/C(C)=C/C=C/CC/C=C\[C@@H]1COC(/C=C/c2ccccc2)=N1)OC`: the inhibition at Tubulin (Bos taurus) [2] is 9%.

Take `C=CC[C@@H](CC/C(C)=C/C=C/CC/C=C\[C@@H]1COC(C(C)(C)C)=N1)OC`: the inhibition was determined as 0% on Tubulin (Bos taurus) [1], 14% on Tubulin (Bos taurus) [2] and 80% on Tubulin (Bos taurus) [3].

Turning to `COc1ccc(/C=C\CC/C=C/C=C(\C)CCC(O)c2ccccc2OC)c(OC)c1` (stereo not given), the concentration for 50% growth inhibition (GI50) in assay [5], in assay [6] and in assay [7] was > 50000 nM throughout.
